Results on 14 compounds are retold here after PubChem BioAssay AID1963445 (Molecular Pharmacology Branch, DTP, NCI, 2024).

In the assay the test system is MCF7 complex spheroid growth, % test/control. Description: Anticancer human tumor MCF7 cell line growth inhibition [Asc].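 For all read-outs here: spheroids exposed to compounds for 7 days.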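 For viability, T/C: 100% = DMSO vehicle control wells.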 The note with it: for viability, T/C: stronger effect = lower value. The protocol: Multicellular complex tumor spheroid response to apoptosis pathway targeting inhibitors Alrizomadlin, Pelcitoclax, and Dasminapant in combination with a variety of drugs and investigational agents in selected tumor cell lines
The MDM2 inhibitor alrizomadlin, the Bcl-2/Bcl-xL inhibitor pelcitoclax, and the IAPs inhibitor dasminapant were evaluated both individually and in combination with standard of care and investigational anticancer small molecules within a complex spheroid model of solid tumors. . Complex spheroids include a stromal component modeled by human endothelial cells (HUVEC) and fibroblasts modeled by human mesenchymal stem cells (MSCs). The concentration ranges selected for each drug and investigational agent were based upon clinically achievable concentrations if the clinical Cmax of the agent was known.
Compounds. The drugs and investigational agents: alrizomadlin (APG-115; NSC831270), pelcitoclax (APG-1252; NSC835773), dasminapant (APG-1387;NSC834197), TAK-243 (NSC785004), copanlisib (NSC809693), olaparib (NSC753686), talazoparib (NSC767125), cobimetinib (NSC 768068), eltanexor (KPT-8602, NSC 794443), abemaciclib (NSC 768073), sotorasib (NSC818433), adagrasib (NSC 831453), MRTX-1133 (NSC 836407), Iadademestat (ORY1001, NSC 806812), and RMC-4630 (NSC839698), were obtained from the NCI Developmental Therapeutics Program Chemical Repository. The FDA-approved anticancer drug set is available from the Developmental Therapeutics Program at https://dtp.cancer.gov/organization/dscb/obtaining/available plates.htm. […] The stock solutions were prepared in dimethyl sulfoxide (DMSO, Sigma-Aldrich, St. Louis, MO, cat. D2650) at 800-fold the tested concentration and stored at -70 degrees C prior to their use. All drugs and investigational agents were tested over a range starting from a high concentration at or near the clinical Cmax and decreasing in half-log increments. If the clinical Cmax for an agent had not been determined, the highest concentration tested was 10 microM.
The patient-derived cancer (PDC) cell lines include five colon adenocarcinomas: 186277-243-T-J2-PDC, 616215-338-R-J1-PDC, 439559-082-T-J2-PDC, 463943-066-T-J2-PDC, and 519858-162-T-J1-PDC; three pancreatic carcinomas: 323965-272-R-J2-PDC, 521955-158-R6-J3-PDC, and 521955-158-R2-J5-PDC; two uterine sarcomas: 327498-152-R-J2-PDC and 993429-296-R-J1-PDC; two rhabdomyosarcomas: 755483-174-R-J1-PDC and 772245-204-R-J1-PDC; two soft tissue sarcomas: 126254-015-R-J1-PDC and 494315-158-R-J1-PDC; two malignant fibrous histiocytomas: 317291-083-R-J1-PDC and 596521-263-R-J1-PDC; two breast carcinomas: 171881-019-R-J1-PDC and 885512-296-R-J2-PDC; and one ovarian carcinoma: 6556581-035-R-J-PDC were obtained from the NCI PDMR, (https://pdmr.cancer.gov). The established cell lines HSSY-2 synovial sarcoma (RRID:CVCL 8719), SYO-1 synovial sarcoma (RRID:CVCL_7146), MPNST malignant peripheral neural sheath tumor were obtained from the Sloan Kettering Institute. The following established cell lines were purchased from the American Type Culture Collection (ATCC, Manassas, VA), Sor the received from the NCI repository:, PANC-1 pancreatic carcinoma (CRL-1469, RRID:CVCL_0480), OVCAR-5 ovarian carcinoma (RRID:CVCL_1628), OVCAR-8 ovarian carcinoma (RRID:CVCL_1629), , MCF-7 breast carcinoma (CRL-12584, RRID:CVCL_0031), MDA-MB-231 breast carcinoma (CRL-12532, RRID:CVCL_0062), NCI-H1876 small cell lung carcinoma (CRL-5902, RRID:CVCL_1503), NCI-H510A small cell lung carcinoma (HTB-184, RRID:CVCL_1565), NCI-H1417 (CRL-5869, RRID:CVCL_1469), and NCI-H196 small cell lung carcinoma (CRL-5823, RRID:CVCL_1509). Dr. Peter Houghton (Greehey Children's Cancer Research Institute, University of Texas Health Science Center, San Antonio, TX) provided Rh-18 rhabdomyosarcoma (RRID:CVCL_1659). Pooled donor human umbilical vein endothelial cells (HUVEC, Lonza, cat. CC-2519) and human mesenchymal stem cells (hMSC, Lonza, cat. PT-2501) were purchased from Lonza (Walkersville, MD).
Cell Culture. […]

The mark [1] stands for this setting: compound alone, run of 11/07/2022.

Several values for one entry are separate records, joined by “and”; a condition that tells them apart may be missing. Equal values may be shown once.

By viability, T/C is commonly meant the ratio of treated to control. Broadly, the IC50 is the concentration at which inhibition is half-maximal.

Turning to `C#Cc1c(F)ccc2cc(O)cc(-c3ncc4c(N5CC6CCC(C5)N6)nc(OCC56CCCN5CC(F)C6)nc4c3F)c12` (centres undefined), the viability, T/C is 97% and 87.3% and 92.6% (compound 0.0316 µM); 102% and 115% and 97.1% (compound 0.1 µM); 94.8% and 96.2% and 101% (compound 0.316 µM); 103% and 97.7% and 108% (compound 1 µM); 90.2% and 99% and 101% (compound 3.16 µM); 87.2% and 87.3% and 87.7% (compound 10 µM). Moreover, the IC50 (curve of compound) was more than 10000 nM.

As to `C=C(F)C(=O)N1CCN(c2nc(OCC3CCCN3C)nc3c2CCN(c2cccc4cccc(Cl)c24)C3)CC1CC#N` (centres undefined), the viability, T/C by setting is: (compound 0.0316 µM) 82.4% and 98.6% and 109%; (compound 0.1 µM) 92.8% and 99.8% and 107%; (compound 0.316 µM) 90.7% and 97.9% and 95.7%; (compound 1 µM) 75.4% and 92.3% and 89.9%; (compound 3.16 µM) 31% and 80% and 72.3%; (compound 10 µM) 0.38% and 0.28% and 0.27%. Also, the IC50 (curve of compound) is 1940 nM and 4850 nM and 4360 nM.

As for `C=CC(=O)N1CCN(c2nc(=O)n(-c3c(C)ccnc3C(C)C)c3nc(-c4c(O)cccc4F)c(F)cc23)C(C)C1` (centres undefined), the viability, T/C runs as follows: (compound 0.0316 µM) 92.7% and 99.7% and 107%; (compound 0.1 µM) 90.9% and 101% and 93.8%; (compound 0.316 µM) 85.3% and 99.8% and 90.6%; (compound 1 µM) 91.7% and 121% and 102%; (compound 3.16 µM) 81.7% and 103% and 114%; (compound 10 µM) 75% and 76.2% and 103%. Where the note is “curve of compound”, the IC50 was more than 10000 nM.

Turning to `CCN1C(C(=O)NC23CCC(C(=O)O)(CC2)CC3)C(c2cccc(Cl)c2F)C2(C(=O)Nc3cc(Cl)ccc32)C12CCCCC2` (centres undefined), the viability, T/C by setting is: (compound 0.00949 µM) 102% [middle of 9 runs]; (compound 0.0949 µM) 48.1% [middle of 9 runs]; (compound 0.3 µM) 33.8% [middle of 9 runs]; (compound 0.949 µM) 23.2% [middle of 9 runs]; (compound 3 µM) 15.6% [middle of 9 runs]. For the same compound, the IC50 is, setting by setting: under setting [1], 94.5 nM [middle of 7 runs]; (curve of compound) 70.9 nM and 108 nM.

`CCN1CCN(Cc2ccc(Nc3ncc(F)c(-c4cc(F)c5nc(C)n(C(C)C)c5c4)n3)nc2)CC1`: the viability, T/C by setting is: (compound 0.00316 µM) 111% and 93.3% and 96.7%; (compound 0.01 µM) 95.5% and 104% and 99.9%; (compound 0.0316 µM) 103% and 93.3% and 99.2%; (compound 0.1 µM) 116% and 96.6% and 91.2%; (compound 0.316 µM) 99% and 97% and 81.4%; (compound 1 µM) 74.3% and 86.7% and 72.5%. In addition, the IC50 (curve of compound) was more than 1000 nM.

On to `CNC(C)C(=O)NC1CN(S(=O)(=O)c2cccc(S(=O)(=O)N3CCC4CCC(C(=O)NC(c5ccccc5)c5ccccc5)N4C(=O)C(NC(=O)C(C)NC)C3)c2)CCC2CCC(C(=O)NC(c3ccccc3)c3ccccc3)N2C1=O` (centres undefined), for which the viability, T/C (compound 0.01 µM) is 14.2% [middle of 9 runs]; the viability, T/C (compound 0.0316 µM) was 11.7% [middle of 9 runs]; the viability, T/C (compound 0.1 µM) is 14.7% [middle of 8 runs]; the viability, T/C (compound 0.316 µM) is 13.2% [middle of 9 runs]; the viability, T/C (compound 1 µM) was 13.2% [middle of 9 runs]. In addition, the IC50 (compound alone, run of 11/15/2022) was less than 3.16 nM; the IC50 (curve of compound) was 5.24 nM and 6.67 nM.

`COc1c(OCCCN2CCOCC2)ccc2c3n(c(=NC(=O)c4cnc(N)nc4)nc12)CCN3`: the viability, T/C is, setting by setting: (compound 0.00316 µM) 79.3% and 87.5% and 83.6%; (compound 0.01 µM) 76.8% and 80.8% and 61.1%; (compound 0.0316 µM) 56.2% and 55.1% and 46.3%; (compound 0.1 µM) 29.5% and 33.3% and 43%; (compound 0.316 µM) 12.4% and 14.6% and 17.5%; (compound 1 µM) 8.01% and 9.89% and 10%. Moreover, under “curve of compound”, the IC50 is 45 nM and 53.6 nM and 22.4 nM.

`Cc1c(S(C)(=O)=O)c(-c2cc(F)cc(N3CCN(c4ccc(NS(=O)(=O)c5ccc(NC(CCN6CCC(C(=O)OCCCP(=O)(O)O)CC6)CSc6ccccc6)c(S(=O)(=O)C(F)(F)F)c5)cc4)CC3)c2)c(-c2ccc(Cl)cc2)n1C(C)C` (centres undefined): the viability, T/C runs as follows: (compound 0.0316 µM) 90.5% [middle of 7 runs]; (compound 10 µM) 166% [middle of 7 runs]. Besides, the IC50 under setting [1] is more than 10000 nM.

`Cc1nc(N2CCC3(CC2)COC(C)C3N)c(CO)nc1Sc1ccnc(N)c1Cl` (centres undefined): the viability, T/C (compound 0.00949 µM) was 89.4% and 87.6% and 92.8%; the viability, T/C (compound 0.03 µM) was 89.1% and 113% and 107%; the viability, T/C (compound 0.0949 µM) is 86.5% and 90.9% and 95.4%; the viability, T/C (compound 0.3 µM) was 82.5% and 93.3% and 94.7%; the viability, T/C (compound 0.949 µM) was 16.5% and 27% and 73%; the viability, T/C (compound 3 µM) was 11.1% and 14.7% and 16.4%. The IC50 (curve of compound) was 529 nM and 636 nM and 1520 nM.

In the case of `Cn1ncnc1[C@H]1c2n[nH]c(=O)c3cc(F)cc(c23)N[C@@H]1c1ccc(F)cc1`, the viability, T/C runs as follows: (compound 0.000316 µM) 95.7% and 82.9% and 96.4%; (compound 0.001 µM) 97.3% and 106% and 99.9%; (compound 0.00316 µM) 97.1% and 107% and 101%; (compound 0.01 µM) 63.8% and 84.2% and 67.2%; (compound 0.0316 µM) 60% and 87.7% and 88.1%; (compound 0.1 µM) 48.8% and 84.9% and 75.1%. The IC50 (curve of compound) was more than 100 nM.

As for `NC(=O)C(=Cn1cnc(-c2cc(C(F)(F)F)cc(C(F)(F)F)c2)n1)c1cncnc1`, the viability, T/C is 113% and 86% and 71.3% (compound 0.000949 µM); 95.1% and 90% and 67.6% (compound 0.003 µM); 81.6% and 81.3% and 64.6% (compound 0.00949 µM); 83.8% and 96.8% and 60.7% (compound 0.03 µM); 41.4% and 32.1% and 51.5% (compound 0.0949 µM); 16% and 17.7% and 24.4% (compound 0.3 µM). Further, under “curve of compound”, the IC50 was 83.4 nM and 65.8 nM and 94.9 nM.

As to `NC1CCC(NC2CC2c2ccccc2)CC1` (centres undefined), the viability, T/C was 89.7% and 112% and 107% (compound 0.000316 µM); 115% and 132% and 136% (compound 0.001 µM); 128% and 133% and 125% (compound 0.00316 µM); 129% and 106% and 132% (compound 0.01 µM); 136% and 104% and 108% (compound 0.0316 µM); 102% and 147% and 137% (compound 0.1 µM). In addition, the IC50 (curve of compound) was more than 100 nM.

Regarding `O=C(c1cc(Cc2n[nH]c(=O)c3ccccc23)ccc1F)N1CCN(C(=O)C2CC2)CC1`, the viability, T/C is 104% and 99% and 94.7% (compound 0.0316 µM); 90.7% and 89.4% and 111% (compound 0.1 µM); 95.8% and 90.3% and 114% (compound 0.316 µM); 104% and 121% and 97.4% (compound 1 µM); 81.3% and 87.6% and 46.4% (compound 3.16 µM); 71.4% and 72.6% and 15.8% (compound 10 µM). In addition, the IC50 (curve of compound) is > 10000 nM and 2910 nM.

Consider `O=C(c1ccc(F)c(F)c1Nc1ccc(I)cc1F)N1CC(O)([C@@H]2CCCCN2)C1`, for which the viability, T/C (compound 0.00316 µM) was 104% and 101% and 102%; the viability, T/C (compound 0.01 µM) is 92.1% and 89.8% and 79.8%; the viability, T/C (compound 0.0316 µM) is 100% and 92.2% and 90.3%; the viability, T/C (compound 0.1 µM) is 99% and 111% and 102%; the viability, T/C (compound 0.316 µM) is 91.3% and 97.2% and 97.5%; the viability, T/C (compound 1 µM) is 86.5% and 89.6% and 87.4%. Further, the IC50 (curve of compound) is more than 1000 nM.
